Publication PMC4971072, “Chemically Homogenous Compounds with Antagonistic Properties at All α1-Adrenoceptor Subtypes but not β1-Adrenoceptor Attenuate Adrenaline-Induced Arrhythmia in Rats” (Frontiers in Pharmacology, 2016)

Tests used:
normal ECG in rats = test: The effect on normal electrocardiogram in rats; assay type: in vivo, rat; details: anesthetized rats, i.p. at ED84
Protocol: The experiment was carried out to exclude the influence of tested compounds on normal ECG. […] The influence on QRS complex, PQ interval, heart rate (RR), and QTc interval was determined.

[1] = system: lipid peroxidation in rat brain homogenate; test: Lipid peroxidation in rat brain homogenate (TBARS), antioxidant effect; assay type: biochemical; details: 10^−3 M; for % reduction of absorbance (% antioxidant activity) / Absorbance: TBARs at 532 nm
Protocol: The rat brain homogenate containing 10 mg tissue/ml was prepared in 0.9% saline. The rates of membrane lipid peroxidation were measured by the formation of thiobarbituric acid reactive substances (TBARS). Rat brain homogenates (1 ml) were incubated at 37°C for 5 min with 10 μl of a tested compound or vehicle. Lipid peroxidation was initiated by the addition of 50 μl of 0.5 mM FeCl2 and 50 μl of 2.0 mM ascorbic acid. After 30 min of incubation, the reaction was stopped by adding 0.1 ml of 0.2% butylated hydroxytoluene (BHT). Thiobarbituric acid reagent was then added and the mixture was heated for 15 min in a boiling water bath.

α1D-adrenoreceptors = target: T1, α1D-adrenoreceptors (Rattus norvegicus, UniProt P23944); test: Functional bioassay, isolated rat aorta, noradrenaline contraction; assay type: biochemical; design: had aorta removed, denuded of endothelium and incubated in the Krebs-Henseleit solution; from tissue; host or cells: isolated rat aorta rings; details: noradrenaline as agonist; for Kb: read-out: pA2 ± S.E.M., α1D (converted)
T1 sequence (P23944 1-561): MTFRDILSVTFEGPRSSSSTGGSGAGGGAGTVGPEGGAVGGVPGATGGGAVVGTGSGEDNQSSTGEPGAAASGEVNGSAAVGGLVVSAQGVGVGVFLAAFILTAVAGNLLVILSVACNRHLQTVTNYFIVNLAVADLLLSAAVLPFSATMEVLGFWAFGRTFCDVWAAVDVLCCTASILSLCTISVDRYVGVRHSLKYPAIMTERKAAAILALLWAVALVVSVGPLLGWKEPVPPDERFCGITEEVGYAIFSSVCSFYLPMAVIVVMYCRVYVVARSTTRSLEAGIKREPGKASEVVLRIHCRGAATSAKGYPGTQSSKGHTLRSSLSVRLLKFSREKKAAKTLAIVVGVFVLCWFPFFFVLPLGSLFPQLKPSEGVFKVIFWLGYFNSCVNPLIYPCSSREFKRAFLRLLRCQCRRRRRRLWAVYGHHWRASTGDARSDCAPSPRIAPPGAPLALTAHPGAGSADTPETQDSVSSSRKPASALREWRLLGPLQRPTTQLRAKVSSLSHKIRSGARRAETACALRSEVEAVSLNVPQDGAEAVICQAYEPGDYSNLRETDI
Protocol: Finally, the influence on α1D-adrenoreceptors was investigated using the isolated rat aorta. […] The aorta rings were maintained at optimal tension of 2.0 g. During 3 h of equilibration tissues were stimulated with noradrenaline three times (0.3 μM). Two cumulative concentration-response curves to noradrenaline, at an interval of 60 min, were established on each tissue both in the presence and absence of antagonist. The incubation with antagonists went on for 30 min. The experiments were carried out in the constant presence of yohimbine (0.1 μM) and propranolol (1 μM) to block α2- and β-adrenoceptors, respectively.
Data are means ± S.E.M. of at least 4 separate experiments. To establish Hill slopes for the agonist concentration–response curves and calculate EC50 values, curves were fitted to all the data by non-linear regression. The EC50 value in the presence and absence of antagonists was used to ascertain the concentration ratio (CR). Schild analysis was performed.

SMILES: COc1ccccc1N1CCN(CCOCCOc2c(C)cccc2C)CC1.Cl [HBK-14, 1-[(2,6-dimethylphenoxy)ethoxyethyl]-4-(2-methoxyphenyl)piperazine hydrochloride]
- influence on ECG parameters (PQ interval, QRS complex, QTc interval) (normal ECG in rats): did not influence the ECG parameters
- Beats/min (ECG) (normal ECG in rats; 0 min (initial values)): 366.0 ± 10.8 Beats/min
- PQ (ECG) (normal ECG in rats; 0 min (initial values)): 47.1 ± 1.1 ms
- QRS (ECG) (normal ECG in rats; 0 min (initial values)): 26.1 ± 0.7 ms
- QT (ECG) (normal ECG in rats; 0 min (initial values)): 85.8 ± 1.3 ms
- QTc (ECG, Bazett) (normal ECG in rats; 0 min (initial values)): 211.7 ± 3.2 ms
- Beats/min (ECG) (normal ECG in rats; 5 min): 369.8 ± 10.0 Beats/min
- PQ (ECG) (normal ECG in rats; 5 min): 46.0 ± 1.0 ms
- QRS (ECG) (normal ECG in rats; 5 min): 25.8 ± 0.5 ms
- QT (ECG) (normal ECG in rats; 5 min): 85.0 ± 4.1 ms
- QTc (ECG, Bazett) (normal ECG in rats; 5 min): 209.2 ± 8.3 ms
- Beats/min (ECG) (normal ECG in rats; 10 min): 367.0 ± 9.9 Beats/min
- PQ (ECG) (normal ECG in rats; 10 min): 46.3 ± 0.9 ms
- QRS (ECG) (normal ECG in rats; 10 min): 27.6 ± 1.0 ms
- QT (ECG) (normal ECG in rats; 10 min): 88.7 ± 1.9 ms
- QTc (ECG, Bazett) (normal ECG in rats; 10 min): 214.8 ± 5.0 ms
- Beats/min (ECG) (normal ECG in rats; 15 min): 359.8 ± 9.5 Beats/min
- PQ (ECG) (normal ECG in rats; 15 min): 47.5 ± 1.3 ms
- QRS (ECG) (normal ECG in rats; 15 min): 27.0 ± 0.6 ms
- QT (ECG) (normal ECG in rats; 15 min): 89.0 ± 2.4 ms
- QTc (ECG, Bazett) (normal ECG in rats; 15 min): 212.9 ± 5.7 ms
- Beats/min (ECG) (normal ECG in rats; 20 min): 358.4 ± 11.4 Beats/min
- PQ (ECG) (normal ECG in rats; 20 min): 46.3 ± 1.0 ms
- QRS (ECG) (normal ECG in rats; 20 min): 26.3 ± 0.4 ms
- QT (ECG) (normal ECG in rats; 20 min): 88.2 ± 2.9 ms
- QTc (ECG, Bazett) (normal ECG in rats; 20 min): 212.5 ± 4.6 ms
- Beats/min (ECG) (normal ECG in rats; 30 min): 359.8 ± 9.6 Beats/min
- PQ (ECG) (normal ECG in rats; 30 min): 48.8 ± 1.9 ms
- QRS (ECG) (normal ECG in rats; 30 min): 26.7 ± 0.9 ms
- QT (ECG) (normal ECG in rats; 30 min): 89.6 ± 1.7 ms
- QTc (ECG, Bazett) (normal ECG in rats; 30 min): 214.1 ± 5.0 ms
- Beats/min (ECG) (normal ECG in rats; 40 min): 362.6 ± 11.9 Beats/min
- PQ (ECG) (normal ECG in rats; 40 min): 48.2 ± 2.1 ms
- QRS (ECG) (normal ECG in rats; 40 min): 26.1 ± 0.4 ms
- QT (ECG) (normal ECG in rats; 40 min): 89.0 ± 2.1 ms
- QTc (ECG, Bazett) (normal ECG in rats; 40 min): 214.1 ± 5.2 ms
- Beats/min (ECG) (normal ECG in rats; 50 min): 361.6 ± 12.6 Beats/min
- PQ (ECG) (normal ECG in rats; 50 min): 47.3 ± 1.6 ms
- QRS (ECG) (normal ECG in rats; 50 min): 26.7 ± 1.0 ms
- QT (ECG) (normal ECG in rats; 50 min): 87.9 ± 1.2 ms
- QTc (ECG, Bazett) (normal ECG in rats; 50 min): 210.9 ± 5.1 ms
- Beats/min (ECG) (normal ECG in rats; 60 min): 364.6 ± 11.2 Beats/min
- PQ (ECG) (normal ECG in rats; 60 min): 48.4 ± 0.9 ms
- QRS (ECG) (normal ECG in rats; 60 min): 27.5 ± 0.7 ms
- QT (ECG) (normal ECG in rats; 60 min): 89.5 ± 2.4 ms
- QTc (ECG, Bazett) (normal ECG in rats; 60 min): 214.1 ± 4.2 ms
- inhibition of lipid peroxidation (in words) [1]: inactive
- % reduction of absorbance (% antioxidant activity) [1]: −4.10%
- Absorbance [1]: 0.939 ± 0.007
- Schild slope ± S.E.M., α1D (α1D-adrenoreceptors): 1.09 ± 0.10
- Kb (α1D-adrenoreceptors): 1.38 nM

SMILES: COc1ccccc1N1CCN(CCOCCOc2c(C)cccc2Cl)CC1.Cl [HBK-15, 1-[(2-chloro-6-methylphenoxy)ethoxyethyl]-4-(2-methoxyphenyl)piperazine hydrochloride]
- influence on ECG parameters (PQ interval, QRS complex, QTc interval) (normal ECG in rats): did not influence the ECG parameters
- Beats/min (ECG) (normal ECG in rats; 0 min (initial values)): 353.8 ± 10.2 Beats/min
- PQ (ECG) (normal ECG in rats; 0 min (initial values)): 48.7 ± 1.0 ms
- QRS (ECG) (normal ECG in rats; 0 min (initial values)): 25.7 ± 0.7 ms
- QT (ECG) (normal ECG in rats; 0 min (initial values)): 87.3 ± 1.4 ms
- QTc (ECG, Bazett) (normal ECG in rats; 0 min (initial values)): 212.0 ± 5.0 ms
- Beats/min (ECG) (normal ECG in rats; 5 min): 365.4 ± 15.3 Beats/min
- PQ (ECG) (normal ECG in rats; 5 min): 48.4 ± 0.5 ms
- QRS (ECG) (normal ECG in rats; 5 min): 26.3 ± 0.9 ms
- QT (ECG) (normal ECG in rats; 5 min): 86.5 ± 1.3 ms
- QTc (ECG, Bazett) (normal ECG in rats; 5 min): 213.6 ± 7.0 ms
- Beats/min (ECG) (normal ECG in rats; 10 min): 350.8 ± 10.5 Beats/min
- PQ (ECG) (normal ECG in rats; 10 min): 48.2 ± 1.0 ms
- QRS (ECG) (normal ECG in rats; 10 min): 26.1 ± 1.1 ms
- QT (ECG) (normal ECG in rats; 10 min): 87.2 ± 2.0 ms
- QTc (ECG, Bazett) (normal ECG in rats; 10 min): 211.3 ± 6.2 ms
- Beats/min (ECG) (normal ECG in rats; 15 min): 333.9 ± 12.4 Beats/min
- PQ (ECG) (normal ECG in rats; 15 min): 46.6 ± 0.9 ms
- QRS (ECG) (normal ECG in rats; 15 min): 25.6 ± 1.2 ms
- QT (ECG) (normal ECG in rats; 15 min): 87.5 ± 2.0 ms
- QTc (ECG, Bazett) (normal ECG in rats; 15 min): 207.1 ± 6.8 ms
- Beats/min (ECG) (normal ECG in rats; 20 min): 327.6 ± 20.3 Beats/min
- PQ (ECG) (normal ECG in rats; 20 min): 47.6 ± 0.5 ms
- QRS (ECG) (normal ECG in rats; 20 min): 26.3 ± 0.5 ms
- QT (ECG) (normal ECG in rats; 20 min): 87.2 ± 0.6 ms
- QTc (ECG, Bazett) (normal ECG in rats; 20 min): 203.7 ± 7.2 ms
- Beats/min (ECG) (normal ECG in rats; 30 min): 340.1 ± 17.7 Beats/min
- PQ (ECG) (normal ECG in rats; 30 min): 46.1 ± 0.3 ms
- QRS (ECG) (normal ECG in rats; 30 min): 26.4 ± 0.9 ms
- QT (ECG) (normal ECG in rats; 30 min): 86.7 ± 1.1 ms
- QTc (ECG, Bazett) (normal ECG in rats; 30 min): 206.4 ± 7.9 ms
- Beats/min (ECG) (normal ECG in rats; 40 min): 339.5 ± 20.4 Beats/min
- PQ (ECG) (normal ECG in rats; 40 min): 46.1 ± 0.7 ms
- QRS (ECG) (normal ECG in rats; 40 min): 28.0 ± 0.9 ms
- QT (ECG) (normal ECG in rats; 40 min): 87.0 ± 1.5 ms
- QTc (ECG, Bazett) (normal ECG in rats; 40 min): 206.5 ± 6.6 ms
- Beats/min (ECG) (normal ECG in rats; 50 min): 350.1 ± 17.9 Beats/min
- PQ (ECG) (normal ECG in rats; 50 min): 47.5 ± 0.7 ms
- QRS (ECG) (normal ECG in rats; 50 min): 26.1 ± 1.2 ms
- QT (ECG) (normal ECG in rats; 50 min): 88.2 ± 0.8 ms
- QTc (ECG, Bazett) (normal ECG in rats; 50 min): 212.7 ± 6.9 ms
- Beats/min (ECG) (normal ECG in rats; 60 min): 351.8 ± 15.0 Beats/min
- PQ (ECG) (normal ECG in rats; 60 min): 48.0 ± 1.1 ms
- QRS (ECG) (normal ECG in rats; 60 min): 26.3 ± 0.5 ms
- QT (ECG) (normal ECG in rats; 60 min): 88.5 ± 2.2 ms
- QTc (ECG, Bazett) (normal ECG in rats; 60 min): 213.9 ± 7.2 ms
- inhibition of lipid peroxidation (in words) [1]: inactive
- % reduction of absorbance (% antioxidant activity) [1]: 1.22%
- Absorbance [1]: 0.891 ± 0.008
- Schild slope ± S.E.M., α1D (α1D-adrenoreceptors): 1.09 ± 0.09
- Kb (α1D-adrenoreceptors): 1.26 nM
